Measurements: PMC4206221 (Science signaling, 2011)

Experiments:
PLK3 = PLK3 (Homo sapiens, UniProt Q9H4B4); experiment: kinase inhibition IC50; assay type: biochemical
PLK1 = PLK1 (Homo sapiens, UniProt P53350); experiment: kinase inhibition IC50; assay type: biochemical
PLK1, sequence (P53350 2-603): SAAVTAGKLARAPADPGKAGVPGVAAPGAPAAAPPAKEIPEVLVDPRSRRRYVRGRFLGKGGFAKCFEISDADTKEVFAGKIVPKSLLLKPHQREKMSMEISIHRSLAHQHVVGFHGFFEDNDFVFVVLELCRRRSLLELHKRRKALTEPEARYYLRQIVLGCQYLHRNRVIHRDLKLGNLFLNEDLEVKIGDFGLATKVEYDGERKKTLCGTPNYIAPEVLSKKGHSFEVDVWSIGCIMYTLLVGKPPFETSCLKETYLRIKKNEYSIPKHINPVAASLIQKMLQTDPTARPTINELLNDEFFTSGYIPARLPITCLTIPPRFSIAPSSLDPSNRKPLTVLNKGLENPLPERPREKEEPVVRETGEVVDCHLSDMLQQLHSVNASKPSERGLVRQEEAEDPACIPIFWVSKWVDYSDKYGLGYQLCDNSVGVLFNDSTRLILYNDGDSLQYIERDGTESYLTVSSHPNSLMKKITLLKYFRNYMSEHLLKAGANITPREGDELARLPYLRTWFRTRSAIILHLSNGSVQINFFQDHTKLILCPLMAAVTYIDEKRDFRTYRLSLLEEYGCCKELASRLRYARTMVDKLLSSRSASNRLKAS

PLK3, sequence (Q9H4B4 whole entry): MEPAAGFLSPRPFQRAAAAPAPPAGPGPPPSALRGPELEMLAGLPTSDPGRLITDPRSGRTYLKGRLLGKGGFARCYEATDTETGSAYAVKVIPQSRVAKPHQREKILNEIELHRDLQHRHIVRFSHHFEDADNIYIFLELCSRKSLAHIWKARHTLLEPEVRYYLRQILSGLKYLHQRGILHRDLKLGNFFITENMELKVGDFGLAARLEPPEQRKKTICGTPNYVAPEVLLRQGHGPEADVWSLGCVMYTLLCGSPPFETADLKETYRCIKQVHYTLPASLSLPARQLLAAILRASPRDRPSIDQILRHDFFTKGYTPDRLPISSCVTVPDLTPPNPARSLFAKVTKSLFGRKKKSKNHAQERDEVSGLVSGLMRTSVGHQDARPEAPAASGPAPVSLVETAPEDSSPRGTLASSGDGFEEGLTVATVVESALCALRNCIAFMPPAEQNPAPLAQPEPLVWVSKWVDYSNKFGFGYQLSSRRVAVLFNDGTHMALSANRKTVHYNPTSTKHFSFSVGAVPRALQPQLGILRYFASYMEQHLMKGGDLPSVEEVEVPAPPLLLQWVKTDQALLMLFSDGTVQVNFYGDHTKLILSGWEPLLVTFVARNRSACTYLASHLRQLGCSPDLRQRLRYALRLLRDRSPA

CC[C@@H]1C(=O)N(C)c2cnc(Nc3ccc(C(=O)NC4CCC(N5C[C@@H](C)O[C@@H](C)C5)CC4)cc3OC)nc2N1C(C)C (some centres unmarked) [BI 4834]
IC50 (PLK3): 0.198 µM
IC50 (PLK1): 0.0076 µM
